Reference: patent publication US10335365B2, “Bladder cancer specific ligand peptides” (The Regents of the University of California, priority 2009, dated 2019)
Positions of bridges follow the written chain, without caps; N, C: chain ends. Non-standard residues stand in square brackets, D forms with d. No end group written: not given here.

Key:
[1] = system: K9TCC, K9TCC-PU-In and K9TCC-PU-Nk cells; assay: WST-8 cell proliferation assay; type: cell-based, canine; conditions: 48 hours, various concentrations, compared with PBS control
Description: FIG. 8A-B. Binding affinity and biological effects of PLZ4 against canine TCC cell lines. A. Binding affinity of PLZ4 against K9TCC-PU and K9TCC-PU-In. Twenty thousands of K9TCC-PU and K9TCC-PU-In were seeded in 96 well plates. After culture for 24 hours, cells were fixed and incubated with different concentrations of PLZ4-biotin for 1.5 hours following avidin-HRP for another 1 hour. Cells treated with avidin-HRP only were served as background control. The color was developed using TMB substrate and read by ELISA readers. The experiment was performed in triplicates and repeated for 3 times. The mean value of the 3 experiments were shown. B. Biological effects of PLZ4 on canine TCC cell lines. Ten thousand K9TCC-PU-In and K9TCC-PU cells were seeded in the 96 well plates and treated with increasing concentrations of PLZ4 or PBS for 2 days. The cell proliferation assay was assessed by WST-8 assay per manufacturer's protocol. Cells treated with PBS were used as 100% control. Each group was performed in triplicate, repeated for 3 times. Mean values at each concentration are presented.
Ligand binding on the cell surface molecules may initiate cell signaling and exert biological effects on cells. The effect of PLZ4 on cell viability and proliferation was determined, as it may have potential clinical applications. […]

[2] = system: parental K562 cells or cells transfected other integrins; assay: Bead binding to parental K562 cells or cells transfected with other integrins; conditions: OBOC beads bearing PLZ4
Description: (§1) Here, OBOC beads bearing PLZ4 peptides on the surface were incubated with K562 cells transfected with various integrins. K562 cells express endogenous a501 integrin. […] Several other ligands obtained from the initial screening also contain the DGR motif. […] To identify which amino acids are involved in determining cell binding and binding specificity, “alanine walk” was performed combined with the rainbow bead coding methods (Luo, et al., J Comb Chem, (2008) 10: 599-604). The amino acids aspartic acid (D, the X2 position), arginine (R, X4) and phenylalanine (F, X7) are important for cell binding. Replacement of any of these amino acids with alanine completely abolished the binding of the peptides to 5637 cells (FIG. 6B). […] Methionine at the X5 position could be replaced to many other amino acids without compromising the binding affinity. Based on this analysis, the three amino acids (D, G and R) at the N-terminus together with the two amino acids (G and F) at the C-terminus determine the binding specificity. Therefore, the binding pocket may be in the clover shape: one for the N-terminal three amino acids, one for the C-terminal two amino acids and a middle pocket. So w the depth of the middle binding pocket by adding different numbers of glycine residue to the X5 position. […]

[3] = system: vascular endothelial cells; assay: Binding to vascular endothelial cells
5637 TCC cancer cells = assay: Bead binding to 5637 cells in urine at pH 6.0; parameters: species or system human; conditions: urine at pH 6.0, 4 hours, 37° C.
Description: The acidic environment in urine may change the 3-D structure of ligands and affect ligand binding. Here it was determined if the cancer-specific beads could bind to 5637 TCC cancer cells in urine. Cells were incubated with beads in urine at pH 6.0 for 4 hours at 37° C. 4-hour incubation was used to mimic the in vivo urine retention in patients and to permit conformational changes and protease digestion.

[4] = target: T1, K562 cells transfected with a503 integrin (Homo sapiens, UniProt P05106+P06756); assay: Bead binding to K562 cells transfected with integrin; conditions: OBOC beads bearing PLZ4
T1 construct: expressed in transfected cells; host or cells: K562
Description: as §1

normal urothelial cells = assay: Whole cell bead binding assay, normal urothelial cells; parameters: species or system human; conditions: peptide on OBOC beads
Description: Four bladder cancer cell lines including 5637 (HTB-9), SCaBER, TCCSUP (HTB-5), and T24 (HTB-4) were purchased from the American Type Culture Collection (Manassas, Va.). The isolation, characterization and maintenance of normal urothelial cells was previously described in detail (Bagai, et al., J Biol Chem, (2002) 277: 23828-23837). Normal peripheral blood mononuclear cells were prepared by using the Ficoll-Paque gradient method from peripheral blood of healthy donors. Bladder cancer tissue obtained from cystectomy was cut into pieces, digested with collagenase at 37° C. for 1-2 hours per the manufacturer's protocol, and filtered through a 40-μm strainer to make single cell suspension. Tumor cells were then isolated with Ficoll-Paque gradient method (800 g, 30 min at 4° C.). Informed consent was obtained from each patient or healthy donor before specimens were collected.
The beads were washed extensively with double-distilled water and phosphate-buffered saline (PBS) before screening. Bladder cancer cells and normal urothelial cells were detached from culture dishes with trypsin/EDTA or a Detach kit (PromoCell, Heidelberg, Germany), washed with their corresponding culture medium, resuspended at 10^6 cells/ml and incubated with OBOC beads in Petri dishes in a humidified CO2 incubator at 37° C. with shaking (60 rpm). […]

[5] = system: bladder TCC cell lines 5637, T24 and TCCSUP; assay: Whole cell bead binding assay, bladder TCC cell lines; parameters: species or system human; conditions: peptide on OBOC beads; 5637, T24, TCCSUP
Description: The beads were washed extensively with double-distilled water and phosphate-buffered saline (PBS) before screening. Bladder cancer cells and normal urothelial cells were detached from culture dishes with trypsin/EDTA or a Detach kit (PromoCell, Heidelberg, Germany), washed with their corresponding culture medium, resuspended at 10^6 cells/ml and incubated with OBOC beads in Petri dishes in a humidified CO2 incubator at 37° C. with shaking (60 rpm). Beads bound by cells appeared as rosettes with a central bead covered by a layer(s) of cells under a microscope. The positive beads were picked with a pipette under inverted microscope, treated with Quanidine HCl (8M, 20 min) to remove cells and proteins on beads surface, and underwent a second round of incubation with the same cells to confirm the binding. Only those beads with cell bindings at both rounds were sent for the amino acid sequencing as previously described (Peng, et al., Nat Chem Biol, (2006) 2: 381-389).
Whole cell bead binding assay was used to screen libraries for peptides that bind bladder cancer cell cultures (FIG. 1). Approximately 150,000 library beads (peptides) were screened against each of 4 bladder cancer cell lines (three transitional cell carcinoma (TCC) lines: T24, TCCSUP and 5637, and one squamous cell line SCaBER). […]

fibroblasts = assay: Whole cell bead binding assay, fibroblasts; conditions: peptide on beads

T1 sequence (P06756 31-889 limits assumed): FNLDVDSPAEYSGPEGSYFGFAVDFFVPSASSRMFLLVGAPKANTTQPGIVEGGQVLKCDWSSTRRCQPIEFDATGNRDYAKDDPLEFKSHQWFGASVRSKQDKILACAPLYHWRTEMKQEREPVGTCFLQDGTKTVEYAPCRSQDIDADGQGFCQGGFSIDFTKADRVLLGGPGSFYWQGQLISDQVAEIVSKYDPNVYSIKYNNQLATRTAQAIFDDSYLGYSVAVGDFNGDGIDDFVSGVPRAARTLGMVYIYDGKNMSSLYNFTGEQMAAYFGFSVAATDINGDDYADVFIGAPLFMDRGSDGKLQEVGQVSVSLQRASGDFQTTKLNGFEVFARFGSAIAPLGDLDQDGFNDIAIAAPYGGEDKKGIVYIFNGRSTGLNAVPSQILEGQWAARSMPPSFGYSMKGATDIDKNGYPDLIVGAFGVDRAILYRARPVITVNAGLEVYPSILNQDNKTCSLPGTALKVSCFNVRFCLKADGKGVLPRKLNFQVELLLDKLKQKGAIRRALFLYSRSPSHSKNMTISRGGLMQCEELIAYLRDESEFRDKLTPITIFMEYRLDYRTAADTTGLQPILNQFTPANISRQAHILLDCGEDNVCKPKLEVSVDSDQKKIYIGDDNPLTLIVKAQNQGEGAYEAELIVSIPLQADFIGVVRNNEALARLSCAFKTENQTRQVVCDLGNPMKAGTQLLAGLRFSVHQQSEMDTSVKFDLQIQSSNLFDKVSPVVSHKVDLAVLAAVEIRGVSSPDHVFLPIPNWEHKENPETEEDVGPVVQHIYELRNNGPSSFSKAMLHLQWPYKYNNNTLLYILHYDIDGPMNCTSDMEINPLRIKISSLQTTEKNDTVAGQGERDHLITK
T1 sequence (P06756 891-1048 partner limits assumed): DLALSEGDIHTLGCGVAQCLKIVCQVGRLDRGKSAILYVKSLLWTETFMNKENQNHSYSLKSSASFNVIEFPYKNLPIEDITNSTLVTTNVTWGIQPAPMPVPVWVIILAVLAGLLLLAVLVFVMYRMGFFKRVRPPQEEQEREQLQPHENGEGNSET
T1 sequence (P05106 27-788): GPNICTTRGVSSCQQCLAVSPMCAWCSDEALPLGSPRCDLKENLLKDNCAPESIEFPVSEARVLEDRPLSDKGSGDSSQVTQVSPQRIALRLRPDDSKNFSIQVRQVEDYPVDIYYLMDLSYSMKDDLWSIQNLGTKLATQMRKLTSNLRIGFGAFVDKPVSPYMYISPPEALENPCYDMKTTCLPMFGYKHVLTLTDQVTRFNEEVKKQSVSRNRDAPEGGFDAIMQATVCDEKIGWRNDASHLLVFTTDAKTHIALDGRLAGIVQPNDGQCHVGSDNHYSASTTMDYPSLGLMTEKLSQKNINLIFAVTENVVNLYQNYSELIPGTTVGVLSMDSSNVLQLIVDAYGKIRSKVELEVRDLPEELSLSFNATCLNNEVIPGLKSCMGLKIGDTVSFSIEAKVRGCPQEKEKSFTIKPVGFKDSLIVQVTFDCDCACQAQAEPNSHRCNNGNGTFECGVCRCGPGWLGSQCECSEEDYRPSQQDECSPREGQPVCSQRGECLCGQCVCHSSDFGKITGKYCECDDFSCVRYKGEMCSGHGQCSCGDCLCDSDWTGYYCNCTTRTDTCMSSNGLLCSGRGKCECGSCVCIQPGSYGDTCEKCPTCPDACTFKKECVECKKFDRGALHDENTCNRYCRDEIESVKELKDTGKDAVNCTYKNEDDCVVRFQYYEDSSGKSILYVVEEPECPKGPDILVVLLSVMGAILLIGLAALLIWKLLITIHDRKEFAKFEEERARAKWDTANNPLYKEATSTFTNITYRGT

cQDGRMGFc ([dC]QDGRMGF[dC]; disulfide 1-9 (inferred)) [PLZ4, bladder cancer-specific ligand peptide]
cell proliferation/viability [1]: no significant changes in cell proliferation/viability | binding to parental K562 cells or cells transfected with other integrins [2]: not to the parental K562 cells or cells transfected other integrins | binding to vascular endothelial cells [3]: did not bind | binding to 5637 cells in urine (5637 TCC cancer cells): still able to bind cells in urine | binding to K562 cells transfected with a503 integrin [4]: bound | binding to normal urothelial cells (normal urothelial cells): did not bind | binding to bladder TCC cell lines [5]: bound to all three bladder TCC cell lines | binding to fibroblasts (fibroblasts): did not bind
